Results reported in patent US12612386B2, “Heteroaryl-triazole compounds as pesticides” (Bayer Aktiengesellschaft, priority 2020, dated 2026).

Assays:
Format in all cases: in vivo
[1] = test system: fall armyworm larvae (Spodoptera frugiperda); assay: whole plant or invertebrate; settings: 168 h
Protocol: Spodoptera frugiperda—Spray Test
• Solvent: 78.0 parts by weight acetone • 1.5 parts by weight dimethylformamide • Emulsifier: alkylarylpolyglycol ether
(§1) To produce a suitable preparation of active compound, 1 part by weight of active compound is mixed with the stated amount of solvents and is diluted with water, containing an emulsifier concentration of 1000 ppm, to the desired concentration. Further test concentrations are prepared by dilution with emulsifier containing water.
Maize (Zea mays) leaf sections are sprayed with a preparation of the active ingredient of the desired concentration. Once dry, the leaf sections are infested with fall armyworm larvae (Spodoptera frugiperda).
After 7 days mortality in % is determined. 100% means all caterpillars have been killed and 0% means none of the caterpillars have been killed.
Spodoptera frugiperda—Spray Test (SPODFR)
After the specified period of time, mortality in % is determined. 100% means all caterpillars have been killed and 0% means none of the caterpillars have been killed.

[2] = test system: larvae of the southern green stink bug (Nezara viridula); assay: whole plant or invertebrate; settings: 96 h
Protocol: Nezara viridula—Spray Test
(§2) • Solvent: 78.0 parts by weight of acetone • 1.5 parts by weight of dimethylformamide • Emulsifier: alkylarylpolyglycol ether
as §1, with “solvent,” for “solvents”, “and the concentrate” for “and”
Barley plants (Hordeum vulgare) are sprayed with a test solution containing the desired concentration of the active ingredient and are infested with larvae of the southern green stink bug (Nezara viridula).
After 4 days mortality in % is determined. 100% means all the stink bugs have been killed; 0% means none of the stink bugs have been killed.

[3] = test system: larvae of the banded cucumber beetle (Diabrotica balteata); assay: Diabrotica balteata spray test; settings: 168 h, 100 g/ha (=32 μg/well), after 7 days, read-out: efficacy (seedling growth)
Protocol: Diabrotica balteata—Spray Test
as §2
as §1, with “solvent,” for “solvents”, “and the concentrate” for “and”
Soaked wheat seeds (Triticum aestivum) are placed in a multiple well plate filled with agar and some water and are incubated for 1 day to germinate (5 seeds per well). The germinated wheat seeds are sprayed with a test solution containing the desired concentration of the active ingredient. Afterwards each unit is infected with 10-20 larvae of the banded cucumber beetle (Diabrotica balteata).
After 7 days efficacy in % is determined. 100% means all the seedlings have grown up like in the untreated, uninfected control; 0% means none of the seedlings have grown.

Structure (SMILES) | mortality at 100 g/ha [1] | mortality at 500 g/ha [2] | pest or weed control at 32 µg/disc, 100 g/ha [3] | mortality at 100 g/ha [2]
C[C@H](NC(=O)c1cc(Cl)cc(S(=O)(=O)C(F)F)c1)c1nc(C2CC2)nn1-c1cc(C(N)=O)ncn1 [I-151] | 83% | – | – | –
Cc1nc([C@H](C)NC(=O)c2cc(Cl)cc(C#N)c2)n(-c2cc(C(N)=O)ncn2)n1 [I-131] | – | 100% | 100% | –
C[C@H](NC(=O)c1cc(Br)cc(Br)c1)c1nc(C2CC2)nn1-c1cc(C(=O)N(C)C)ncn1 [I-158] | 100% | – | 100% | –
C[C@H](NC(=O)c1cc(OC(F)(F)F)cc(S(C)(=O)=O)c1)c1nc(C2CC2)nn1-c1cc(C#N)ncn1 [I-14] | – | – | 100% | –
CNC(=O)c1cc(-n2nc(C3CC3)nc2[C@H](C)NC(=O)c2cc(OC(F)(F)F)cc(S(C)(=O)=O)c2)ncn1 [I-155] | 100% | 100% | – | –
C[C@H](NC(=O)c1cc(Cl)cc(S(=O)(=O)C(F)F)c1)c1ncnn1-c1cc(C#N)ncn1 [I-119] | 100% | 100% | 100% | –
C[C@H](NC(=O)c1cc(Cl)cc(S(=O)(=O)C(F)(F)F)c1)c1nc(C2CC2)nn1-c1cc(C(N)=O)ncn1 [I-109] | 100% | – | 100% | –
Cc1nc([C@H](C)NC(=O)c2cc(Cl)cc(S(=O)(=O)C(F)(F)F)c2)n(-c2cc(C#N)ncn2)n1 [I-24] | 100% | – | 100% | –
Cc1nc([C@H](C)NC(=O)c2cc(F)cc(C#N)c2)n(-c2cc(C(N)=O)ncn2)n1 [I-96] | – | 100% | – | –
Cc1nc([C@H](C)NC(=O)c2cc(Br)cc(C#N)c2)n(-c2cc(C(N)=O)ncn2)n1 [I-127] | 100% | 100% | 100% | 90%
C[C@H](NC(=O)c1cc(OC(F)(F)F)cc(C2(C#N)CC2)c1)c1nc(C2CC2)nn1-c1cc(C#N)ncn1 [I-43] | 100% | – | 80% | –
C[C@H](NC(=O)c1cc(C#N)cc(OC(F)(F)F)c1)c1nc(C2CC2)nn1-c1cc(C#N)ncn1 [I-53] | – | – | 100% | –
C[C@H](NC(=O)c1cc(Br)cc(OC(F)F)c1)c1nc(C2CC2)nn1-c1cc(C(N)=O)ncn1 [I-104] | 100% | – | 100% | –
CC(C)N(C)C(=O)c1cc(-n2ncnc2[C@H](C)NC(=O)c2cccc(OC(F)(F)F)c2)ncn1 [I-111] | 100% | – | – | –
C[C@H](NC(=O)c1cc(C(F)(F)F)cc(S(C)(=O)=O)c1)c1nc(C2CC2)nn1-c1cc(C(N)=O)ncn1 [I-108] | 100% | – | – | –
Cc1nc([C@H](C)NC(=O)c2cc(OC(F)(F)F)cc(OC(F)(F)F)c2)n(-c2cc(C(N)=O)ncn2)n1 [I-117] | 100% | 100% | 100% | –
C[C@H](NC(=O)c1cc(Cl)cc(S(=O)(=O)c2ccc(Cl)cc2)c1)c1ncnn1-c1cc(C#N)ncn1 [I-11] | 100% | – | 80% | –
C[C@H](NC(=O)c1cc(Cl)cc(OC(F)(F)F)c1)c1nc(C2CC2)nn1-c1cc(C(N)=O)ncn1 [I-106] | 100% | – | 100% | –
C[C@H](NC(=O)c1cc(Br)cc(OC(F)(F)F)c1)c1nc(C2CC2)nn1-c1cc(C#N)ncn1 [I-15, 3-bromo-N-[(1S)-1-[2-(6-cyanopyrimidin-4-yl)-5-cyclopropyl-1,2,4-triazol-3-yl]ethyl]-5-(trifluoromethoxy)benzamide] | 100% | – | 100% | –
C[C@H](NC(=O)c1cc(C(F)(F)F)cc(C(F)(F)F)c1)c1nc(C2CC2)nn1-c1cc(C(N)=O)ncn1 [I-105] | 100% | – | 100% | –
C[C@H](NC(=O)c1ccnc(OC(F)(F)F)c1)c1ncnn1-c1cc(C(N)=O)ncn1 [I-132] | 100% | 100% | 100% | –
C[C@H](NC(=O)c1cc(OC(F)(F)F)cc(S(=O)(=O)C(F)F)c1)c1nc(C2CC2)nn1-c1cc(C(N)=O)ncn1 [I-144] | 100% | – | – | –
CSc1cc(OC(F)F)cc(C(=O)N[C@@H](C)c2nc(C3CC3)nn2-c2cc(C(N)=O)ncn2)c1 [I-137] | 100% | – | – | –

Structure (SMILES) | mortality at 100 g/ha [1] | mortality at 500 g/ha [2] | pest or weed control at 32 µg/disc, 100 g/ha [3] | mortality at 100 g/ha [2]
C[C@H](NC(=O)c1cc(OC(F)(F)F)cc(OC(F)(F)F)c1)c1nc(C2CC2)nn1-c1cc(C(=O)N(C)C)ncn1 [I-165] | 100% | – | 100% | –
C[C@H](NC(=O)c1cc(OC(F)(F)F)cc(S(=O)(=O)C(F)(F)F)c1)c1nc(C2CC2)nn1-c1cc(C(=O)N(C)C)ncn1 [I-157] | 100% | – | 100% | –
C[C@H](NC(=O)c1cc(C(F)F)cc(C(F)F)c1)c1nc(C2CC2)nn1-c1cc(C(N)=O)ncn1 [I-147] | 100% | 100% | – | –
C[C@H](NC(=O)c1cc(Cl)cc(OC(F)(F)C(F)(F)I)c1)c1ncnn1-c1cc(C(N)=O)ncn1 [I-114, 6-(5-{(1S)-1-[3-chloro-5-(1,1,2,2-tetrafluoro-2-iodoethoxy)benzamido]ethyl}-1H-1,2,4-triazol-1-yl)pyrimidine-4-carboxamide] | 100% | – | 100% | –
Cc1nc([C@H](C)NC(=O)c2cc(Br)cc(OC(F)F)c2)n(-c2cc(C#N)ncn2)n1 [I-26] | 100% | – | 100% | –
C[C@H](NC(=O)c1cc(OC(F)F)cc(C2CC2)c1)c1nc(C2CC2)nn1-c1cc(C(N)=O)ncn1 [I-153] | 100% | – | 100% | –
C[C@H](NC(=O)c1cc(S(=O)(=O)C(F)(F)F)cc(S(=O)(=O)C(F)(F)F)c1)c1nc(C2CC2)nn1-c1cc(C(N)=O)ncn1 [I-107] | 100% | – | 100% | –
C[C@H](NC(=O)c1cc(OC(F)(F)F)cc(S(C)(=O)=O)c1)c1nc(C2CC2)nn1-c1cc(C(N)=O)ncn1 [I-47] | 100% | – | 100% | –
C[C@H](NC(=O)c1cc(Br)cc(OC(F)(F)F)c1)c1nc(C2CC2)nn1-c1cc(C(N)=O)ncn1 [I-13, 6-[5-[(1S)-1-[[3-bromo-5-(trifluoromethoxy)benzoyl]amino]ethyl]-3-cyclopropyl-1,2,4-triazol-1-yl]pyrimidine-4-carboxamide] | 100% | – | 100% | –
Cc1nc([C@H](C)NC(=O)c2cc(OC(F)F)cc(OC(F)F)c2)n(-c2cc(C(=O)N(C)C(C)C)ncn2)n1 [I-100] | 83% | – | – | –
C[C@H](NC(=O)c1cc(Br)nc(Br)c1)c1ncnn1-c1cc(C(N)=O)ncn1 [I-148] | 100% | 100% | 100% | –
C[C@H](NC(=O)c1cc(OC(F)(F)F)cc(C2CC2)c1)c1nc(C2CC2)nn1-c1cc(C(N)=O)ncn1 [I-146] | 100% | – | 100% | –
C[C@H](NC(=O)c1cc(OC(F)(F)F)cc(C2CC2)c1)c1nc(C2CC2)nn1-c1cc(C#N)ncn1 [I-17] | – | – | 100% | –
C[C@H](NC(=O)c1cc(OC(F)(F)F)cc(S(=O)(=O)C(F)(F)F)c1)c1ncnn1-c1cc(C#N)ncn1 [I-91] | 100% | – | 100% | –
Cc1nc([C@H](C)NC(=O)c2cc(Cl)cc(S(=O)(=O)C(F)F)c2)n(-c2cc(C#N)ncn2)n1 [I-27] | 100% | – | 100% | –
Cc1nc([C@H](C)NC(=O)c2cc(OC(F)(F)F)cc(S(C)(=O)=O)c2)n(-c2cc(C#N)ncn2)n1 [I-30] | 100% | 100% | 100% | –
C[C@H](NC(=O)c1cc(Br)cc(Br)c1)c1nc(C2CC2)nn1-c1cc(C(N)=O)ncn1 [I-145] | 100% | – | 100% | –
CC(NC(=O)c1cc(OC(F)(F)F)cc(S(=O)(=O)C2CC2)c1)c1ncnn1-c1cc(C#N)ncn1 (stereo not drawn) [I-9] | 100% | – | – | –
C[C@H](NC(=O)c1cc(Br)cc(OC(F)F)c1)c1nc(C2CC2)nn1-c1cc(C#N)ncn1 [I-16] | – | – | 100% | –
CC(C)N(C)C(=O)c1cc(-n2ncnc2[C@H](C)NC(=O)c2cc(Br)cc(OC(F)(F)C(F)F)c2)ncn1 [I-123] | 100% | – | – | –
CNC(=O)c1cc(-n2nc(C)nc2[C@H](C)NC(=O)c2cc(Cl)cc(S(C)(=O)=O)c2)ncn1 [I-62] | 83% | 100% | – | –
C[C@H](NC(=O)c1cc(Br)cc(C2CC2(Cl)Cl)c1)c1ncnn1-c1cc(C#N)ncn1 (stereo partly drawn) [I-54] | 100% | – | 100% | –
